Patent US20220143152A1, “USE OF PEPTIDE DERIVED FROM H-REV107” (GJMEDI INC., priority 2019, published 2022)

Experiments:
[1] = system: AsPC-1 (pancreatic cancer) cell-line; assay type: cell-based; settings: 72 h
Experimental: (§1) Cancer cell-lines used in this example were SW480 (colon cancer), AsPC-1 (pancreatic cancer), NCI-H23 (lung cancer), NCI-H460 (lung cancer) and HCT116 (colon cancer) cell-lines. Specifically, for HCT116 and NCI-H460 cell-lines, 100 μl of a culture medium containing 2×10^3 cells per well; for SW480 and NCI-H23 cell-lines, 100 μl of a culture medium containing 5×10^3 cells per well; and, for AsPC-1 cell-line, 100 μl of a culture solution containing 1×10^4 cells per well, respectively, were seeded. The seeded cells were cultured for 24 hours for adhesion to the well, and the medium was changed. […] After completion of the culture, a cell counting kit-8 (CCK-8) solution (10 μl/well) was added, and the cells were further cultured for 4 hours in a CO2 incubator maintained at 37° C.

[2] = system: SW480 (colon cancer) cell-line; assay type: cell-based; settings: 72 h
Experimental: as §1

[3] = system: HCT116 (colon cancer) cell-line; assay: Cancer inhibitory activity, CCK-8; assay type: cell-based; settings: HCT-116, 72 hours treatment
Experimental: as §1

[4] = system: NCI-H23 (lung cancer) cell-line; assay: Cancer inhibitory activity, CCK-8; assay type: cell-based; settings: NCI-H23, 72 hours treatment
Experimental: as §1

[5] = system: NCI-H460 (lung cancer) cell-line; assay: Cancer inhibitory activity, CCK-8; assay type: cell-based; settings: NCI-H460, 72 hours treatment
Experimental: as §1

[6] = molecular target: mutant KRAS G12V (Homo sapiens, UniProt P01116, G12V); assay: GTP binding assay; assay type: biochemical; settings: in the presence of H-REV107 protein, FIG. 3a
Experimental: The prepared mixture was incubated with a binding solution (50 mM Hepes (pH 7.5), 100 mM NaCl, 2 mM MgCl2, 1 mM EDTA and 1 mM DTT). The culture was passed through Ni-NTA resin and then bound at 4° C. […] GTP (2,500 cpm/pmol) and […] To terminate binding, a washing buffer (20 mM Tris-HCl (pH 7.4), 100 mM NaCl and 2 mM MgCl2) was added. After washing, the bound protein was eluted using 200 mM imidazole. In this example, bovine serum albumin was used as a negative control. Radioactive GTP bound to the protein was quantified by a liquid scintillation counter, and the results thereof are shown in FIG. 3.

Molecule | GI50 [1] | GI50 [2] | GI50 [3] | GI50 [4] | GI50 [5] | radioactive GTP binding activity of the mutant KRAS G12V [6]
CC(C)C[C@H](N)C(=O)N[C@@H](Cc1ccc(O)cc1)C(=O)N[C@@H](CC(=O)O)C(=O)N[C@H](C(=O)N[C@@H](C)C(=O)NCC(=O)N[C@@H](CO)C(=O)N[C@@H](CC(=O)O)C(=O)N[C@@H](CCCCN)C(=O)N[C@@H](Cc1ccc(O)cc1)C(=O)O)C(C)C [CY101] | 417 µM | 358 µM | millimolar (mM) range | millimolar (mM) range | millimolar (mM) range | –
H-REV107 protein: H-REV107 (HRAS-like suppressor 3), a growth inhibitory RAS target gene product (protein, UniProt P53816 1-162, looked up) Phospholipase A and …: MRAPIPEPKPGDLIEIFRPFYRHWAIYVGDGYVVHLAPPSEVAGAGAASVMSALTDKAIVKKELLYDVAGSDKYQVNNKHDDKYSPLPCSKIIQRAEELVGQEVLYKLTSENCEHFVNELRYGVARSDQVRDVIIAASVAGMGLAAMSLIGVMFSRNKRQKQ | – | – | – | – | – | somewhat reduced
